The numbers were not newly measured in US20090209641A1, “PHARMACEUTICAL COMPOSITION FOR ADMINISTRATION BY INJECTION” (priority 2006, published 2009), which cites them from elsewhere.

As for `N.N.O=C([O-])C1(C(=O)[O-])CCC1.[Pt+2]` [carboplatinum], the solubility in water was 17 mg/mL.
